These are literature values, as cited in patent publication US20080262086A1, “SUBSTITUTED ANTHRANILIC ACIDS” (AUSPEX PHARMACEUTICALS, INC., priority 2007, published 2008).

What is called half-life is how long it takes for the measured level to halve.

Data set [1] deals with reabsorption of sodium, potassium, and chloride. The settings on record: times more potent than furosemide.
The conditions of data set [2]: short half-life of bumetanide, background.

Turning to `CCCCNc1cc(C(=O)O)cc(S(N)(=O)=O)c1Oc1ccccc1` [Bumetanide, 3-Butylamino-4-phenoxy-5-sulfamoyl-benzoic acid], in data set [1], the “potency relative to furosemide” value is listed as “approximately 40 times”. For the same compound, the half-life in data set [2] is 1 to 1.5 h.
